{
  "source": "a melting point compilation (Tetko et al.; mined from patent text by program, amines drawn as free bases though some values may be those of a salt)",
  "data": [
    {"units": {"melting point": "°C"}, "values": [
      {"smiles": "Cn1cc(CNC(=O)c2cc(N3CCN(Cc4ccc(F)cc4)C3=O)n[nH]2)cn1", "melting point": "244 to 245"},
      {"smiles": "CCOc1ccc(C2(C(=O)Oc3ccc(C(=O)NO)cc3)CCCCC2)cc1", "melting point": "140 to 143"},
      {"smiles": "Cc1c(CCNC(=O)OC(C)(C)C)c2cc(S(=O)(=O)c3cc(F)cc(F)c3)ccc2n1C", "melting point": "182 to 186"},
      {"smiles": "Cc1cc(C(O)(C(F)(F)F)C(F)(F)F)cc(C)c1OCC(=O)O", "melting point": "118 to 120"},
      {"smiles": "CCOC(=O)c1ccc(-c2c(Cl)c(CN3C(=O)CCC3=O)nc3sc4c(c23)CCNC4)cc1", "melting point": "213 to 214"},
      {"smiles": "O=C1CCC(c2ccccc2)(c2ccccc2)[C@@H]2CN(C(=O)Cc3ccccc3N3CCOCC3)C[C@H]12", "note": "(racemic)", "melting point": 167},
      {"smiles": "CC(C)NC(=O)c1ccc(-c2ccc3nnn(Cc4ccc5ncccc5c4)c3n2)cc1F", "melting point": "177 to 179"},
      {"smiles": "CCCN1C(=O)C(C)(C)N=C(c2ccccc2F)c2cc([N+](=O)[O-])cc(Cl)c21", "melting point": "178 to 179"},
      {"smiles": "Brc1cccc(C2Cc3cnc(Nc4ccc(CCNCc5ccccc5)cc4)nc3-c3ccccc32)c1", "note": "(centres undefined)", "melting point": "98 to 100"},
      {"smiles": "CCOC(=O)c1cc2c(nc(C)n2C)c2c1CCC(c1ccccc1)O2", "note": "(centres undefined)", "melting point": "172 to 173"},
      {"smiles": "Cc1nc2cccc(N)c2c(=O)n1C1CCC(=O)NC1=O", "note": "(centres undefined)", "melting point": "293 to 295"},
      {"smiles": "CCCCCCCCCCCCCCC(CCCCCCCCCCCCCC)C(=O)O", "melting point": "73.5 to 75"},
      {"smiles": "COC(=O)CCCC#Cc1cc(Cl)ccc1NS(=O)(=O)c1ccc2nc(N)oc2c1", "melting point": 135},
      {"smiles": "O=CN(O)C1(CS(=O)(=O)c2ccc(Oc3ccc(OC(F)(F)F)cc3)cc2)CCC(C(=O)O)CC1", "note": "(centres undefined)", "melting point": 207},
      {"smiles": "CSC1Cc2cc(Cl)ccc2C1=O", "note": "(centres undefined)", "melting point": 90},
      {"smiles": "CC1(c2ccc([N+](=O)[O-])cc2)Cc2cc(O)c(Cl)c(Cl)c2C1=O", "note": "(centres undefined)", "melting point": "268 to 270"},
      {"smiles": "Cc1cc(C(=O)O)n(-c2ccc(F)cc2)n1", "melting point": 188},
      {"smiles": "COc1ncnc(-c2ccc(Cl)cc2Cl)c1C#N", "melting point": "107 to 109"},
      {"smiles": "CC(=O)C1CCC2C3CCC4CC(O)C(N5CCOC(Cc6ccccc6)C5)CC4(C)C3C(=O)CC12C", "note": "(centres undefined)", "melting point": "160 to 162"},
      {"smiles": "COc1ccc2c(c1)N(CC(=O)O)C(=O)C(N)CC2", "note": "(centres undefined)", "melting point": "> 300"},
      {"smiles": "CCOC(=O)CCCCCCCn1c(=O)[nH]c2ccccc2c1=O", "melting point": "88 to 89"},
      {"smiles": "O=C(O)C1=NN(c2cccc(Cl)c2)C(c2ccccc2)CC1", "note": "(centres undefined)", "melting point": "157 to 158"},
      {"smiles": "Cc1noc(NS(=O)(=O)c2ccccc2-c2ccc(-c3ncco3)cc2CC(=O)N(C)C)c1C", "melting point": "89 to 96"},
      {"smiles": "O=C(c1ccncc1)c1cc(-c2ccccc2)c(N2CCOCC2)s1", "melting point": 149},
      {"smiles": "COc1ccc(CCNC(=O)Cc2ccc(OC)c(OC)c2)cc1OC", "melting point": 125},
      {"smiles": "O=S1(=O)N=CN(C2CC2)c2cc(Br)cc(C(F)(F)F)c21", "melting point": "253 to 254"},
      {"smiles": "C=C(C)CN1CCCC(C(=O)O)=Cc2cc(-c3ccc(OCCOCCCC)cc3)ccc21", "melting point": "132 to 134"},
      {"smiles": "CCOC(=O)Cc1nc(-c2ccccc2)n(C)n1", "melting point": "82 to 83"},
      {"smiles": "COc1nc(Cl)cnc1NS(=O)(=O)c1ccccc1-c1ccc(OC(C)C(=O)O)cc1", "note": "(centres undefined)", "melting point": "223 to 225"},
      {"smiles": "CN(C)C=Nc1sc([N+](=O)[O-])cc1C#N", "melting point": 230},
      {"smiles": "C=C(C)Cn1c(N)cc(=O)[nH]c1=O", "melting point": "267 to 269"},
      {"smiles": "CC(C)(C)OC(=O)N1CC=C(c2c(F)cc(N)cc2F)CC1", "melting point": "134 to 135"},
      {"smiles": "C=C=Cn1c(C)c(C)c2cnnc(OCc3ccccc3)c21", "melting point": "77 to 79"},
      {"smiles": "Cc1ccc(Nc2nnc(Cc3ccncc3)c(C)c2C)cc1", "melting point": "68 to 70"},
      {"smiles": "CNc1ccc2c(c1)C(c1ccccc1F)=NCc1cnc(C)n1-2", "melting point": "255 to 259"},
      {"smiles": "CCOC(=O)N1CCN(c2ccc(N3CC(CNC(C)=O)OC3=O)cc2F)CC1", "note": "(centres undefined)", "melting point": "224 to 226"},
      {"smiles": "CCCCCCCNC(=O)N(C)c1ccc(C)c(-c2ccc(CCC(=O)O)cc2)c1", "melting point": 104},
      {"smiles": "c1ccc(COC2CCN(Cc3c[nH]c4ccccc34)CC2)cc1", "melting point": "143 to 145"},
      {"smiles": "O=C(O)c1ccc2nc3ccc(C(=O)O)nn3c(=O)c2c1", "melting point": "> 285"},
      {"smiles": "CCOC(=O)c1ccc(C)c(Nc2nccc(-c3cccnc3)n2)c1", "melting point": "95 to 96"},
      {"smiles": "CN(C)C(=O)Nc1cccc(C#N)n1", "melting point": 125},
      {"smiles": "CNc1ccc(-c2ocnc2-c2cc(OC)cc(OC)c2)cc1F", "melting point": "140 to 142"},
      {"smiles": "COc1ccc(C(=O)C#Cc2ccc3c(c2)c(=O)n(Cc2ccc(F)cc2)c(=O)n3C)cc1", "melting point": 240},
      {"smiles": "COc1cc(/C=C/C(=O)/C=C/c2cc(OC)c(O)c(OC)c2)cc(OC)c1O", "melting point": "166 to 168"},
      {"smiles": "Nc1c(CC(=O)O)cccc1Nc1ccccc1Cl", "melting point": "230 to 232"},
      {"smiles": "O=C1N(c2ccc(F)cc2)c2ccccc2C1(O)c1cc2c(cc1O)OCCO2", "note": "(centres undefined)", "melting point": "195 to 200"},
      {"smiles": "O=[N+]([O-])c1ccc(-c2nc[nH]c2-c2ccc([N+](=O)[O-])cc2)cc1", "melting point": 294},
      {"smiles": "Cc1cc(C)cc(C(=O)N2CCC(Nc3nc4ccccc4n3Cc3cccs3)CC2Cc2ccccc2)c1", "note": "(centres undefined)", "melting point": 201},
      {"smiles": "CC1(CCC(O)(c2ccccc2)c2ccccc2)CCCCC12OCCO2", "note": "(centres undefined)", "melting point": "115 to 117"}
    ]}
  ]
}
